The record followed here is ChEMBL document CHEMBL3351314, “Neutrophil elastase inhibitors as potential anti-inflammatory therapies” (ACS Med Chem Lett, 2014).

Assay [1] addresses T1, Neutrophil elastase (Homo sapiens, UniProt P08246).
T1 sequence (P08246 whole entry): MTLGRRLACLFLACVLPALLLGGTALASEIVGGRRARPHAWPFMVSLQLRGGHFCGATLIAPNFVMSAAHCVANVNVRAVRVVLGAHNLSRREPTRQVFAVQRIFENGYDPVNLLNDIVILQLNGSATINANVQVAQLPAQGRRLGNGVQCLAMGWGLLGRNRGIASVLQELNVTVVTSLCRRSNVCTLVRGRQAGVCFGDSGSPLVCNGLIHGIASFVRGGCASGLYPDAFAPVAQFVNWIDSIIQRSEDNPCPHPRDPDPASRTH
In words: Inhibition of human neutrophil elastase using MeOSuc-Ala-Ala-Pro-Val-AMC as substrate after 15 mins by fluorescence assay.

For assay [2], the target named is T1, Neutrophil elastase. The assay can be described thus: Inhibition of neutrophil elastase in human plasma using MeOSuc-Ala-Ala-Pro-Val-AMC as substrate by fluorescence assay.

In the case of `N#Cc1ccc(C2C3=C(CCC3=O)N(c3cccc(C(F)(F)F)c3)C(=O)N2CC(=O)N2CCC2)cc1` (centres undefined), the IC50 (in general, the midpoint of a concentration-inhibition curve) in assay [1] stood at 3.7 nM. Moreover, the EC50 (as a rule, the concentration at which the effect is half-maximal) in assay [2] was found to be 4 nM.
The like results for `CS(=O)(=O)c1cc(C#N)ccc1C1C2=C(CCC2=O)N(c2cccc(C(F)F)c2)C(=O)N1C(=O)N1CC1` (centres undefined) were, in that order, < 1 nM and < 1 nM.
